Earlier results as cited in patent US20160158274A1, “COMPOSITION FOR MUCOUS DISPERSION OR HYDRATION, CONTAINING POLY-r-[sequence] ACID” (BIOLEADERS CORPORATION, priority 2013, published 2016).

Tested on: mucin
Conditions: mucin in cystic fibrosis

## O=C(O)CN(CCN(CC(=O)O)CC(=O)O)CC(=O)O [EDTA]
  dispersion of aggregated mucin: assist in dispersion of mucin
